Tested on: recombinant NL4-3 virus (Renilla luciferase, Gag P373S)
Assay: HIV cell culture assay (luciferase reporter, MT-2 cells)
Format: cell-based
Details: Renilla, NL43, MT-2 cells infected for 4-5 days with NLRluc recombinants; luciferase activity
Procedure: MT-2 cells and 293T cells were obtained from the NIH AIDS Research and Reference Reagent Program. MT-2 cells were propagated in RPMI 1640 media supplemented with 10% heat inactivated fetal bovine serum, […]. The 293T cells were propagated in DMEM media supplemented with 10% heat inactivated fetal bovine serum (FBS), 100 units/ml penicillin G and 100 μg/ml streptomycin. The proviral DNA clone of NL4-3 was obtained from the NIH AIDS Research and Reference Reagent Program. A recombinant NL4-3 virus, in which a section of the nef gene from NL4-3 was replaced with the Renilla luciferase gene, was used as a reference virus. In addition, residue Gag P373 was converted to P373S. Briefly, the recombinant virus was prepared by transfection of the altered proviral clone of NL4-3. Transfections were performed in 293T cells using LipofectAMINE PLUS from Invitrogen (Carlsbad, Calif.), according to manufacturer's instruction. The virus was titered in MT-2 cells using luciferase enzyme activity as a marker. Luciferase was quantitated using the Dual Luciferase kit from Promega (Madison, Wis.), with modifications to the manufacturer's protocol. The diluted Passive Lysis solution was pre-mixed with the re-suspended Luciferase Assay Reagent and the re-suspended Stop & Glo Substrate (2:1:1 ratio). Fifty (50) μL of the mixture was added to each aspirated well on assay plates and luciferase activity was measured immediately on a Wallac TriLux (Perkin-Elmer). Antiviral activities of inhibitors toward the recombinant virus were quantified by measuring luciferase activity in cells infected for 4-5 days with NLRluc recombinants in the presence serial dilutions of the inhibitor.

| Structure (SMILES) | EC50 |
| --- | --- |
| C=C(C)[C@@H]1CC[C@]2(NCCN3CCC(S(C)(=O)=O)CC3)CC[C@]3(C)[C@H](CC[C@@H]4[C@@]5(C)CC=C(C6=CCC(C#N)(C(=O)O)CC6)C(C)(C)[C@@H]5CC[C@]43C)[C@@H]12 (mixture of isomers) [Example A6, 1-cyano-4-((1R,3aS,5aR,5bR,7aR,11aS,11bR,13aR,13bR)-5a,5b,8,8,11a-pentamethyl-3a-((2-(4-(methylsulfonyl)piperidin-1-yl)ethyl)amino)-1-(prop-1-en-2-yl)-2,3,3a,4,5,5a,5b,6,7,7a,8,11,11a,11b,12,13,13a,13b-octadecahydro-1H-cyclopenta[a]chrysen-9-yl)cyclohex-3-enecarboxylic acid] | 6.18 nM |
| C=C(C)[C@@H]1CC[C@]2(NCCN3CCC(S(C)(=O)=O)CC3)CC[C@]3(C)[C@H](CC[C@@H]4[C@@]5(C)CC=C(C6=CCC(Cl)(C(=O)O)CC6)C(C)(C)[C@@H]5CC[C@]43C)[C@@H]12 (mixture of isomers) [Example A8, 1-chloro-4-((1R,3aS,5aR,5bR,7aR,11aS,11bR,13aR,13bR)-5a,5b,8,8,11a-pentamethyl-3a-((2-(4-(methylsulfonyl)piperidin-1-yl)ethyl)amino)-1-(prop-1-en-2-yl)-2,3,3a,4,5,5a,5b,6,7,7a,8,11,11a,11b,12,13,13a,13b-octadecahydro-1H-cyclopenta[a]chrysen-9-yl)cyclohex-3-enecarboxylic acid] | 2.42 nM |
| C=C(C)[C@@H]1CC[C@]2(NCCN3CCC(S(C)(=O)=O)CC3)CC[C@]3(C)[C@H](CC[C@@H]4[C@@]5(C)CC=C(C6=CCC(CCO)(C(=O)O)CC6)C(C)(C)[C@@H]5CC[C@]43C)[C@@H]12 (mixture of isomers) [Example A11] | 2.65 nM |
| C=C(C)[C@@H]1CC[C@]2(NCCN3CCC(S(C)(=O)=O)CC3)CC[C@]3(C)[C@H](CC[C@@H]4[C@@]5(C)CC=C(C6=CCC(CO)(C(=O)O)CC6)C(C)(C)[C@@H]5CC[C@]43C)[C@@H]12 (mixture of isomers) [Example A13, 1-(hydroxymethyl)-4-((1R,3aS,5aR,5bR,7aR,11aS,11bR,13aR,13bR)-5a,5b,8,8,11a-pentamethyl-3a-((2-(4-(methylsulfonyl)piperidin-1-yl)ethyl)amino)-1-(prop-1-en-2-yl)-2,3,3a,4,5,5a,5b,6,7,7a,8,11,11a,11b,12,13,13a,13b-octadecahydro-1H-cyclopenta[a]chrysen-9-yl)cyclohex-3-enecarboxylic acid] | 0.301 nM |
| C=C(C)[C@@H]1CC[C@]2(NCCN3CCS(=O)(=O)CC3)CC[C@]3(C)[C@H](CC[C@@H]4[C@@]5(C)CC=C(C6=CC(CC(=O)O)CC6)C(C)(C)[C@@H]5CC[C@]43C)[C@@H]12 (mixture of isomers) [Example A15] | 0.547 nM |
| C=C(C)[C@@H]1CC[C@]2(NCCN3CCS(=O)(=O)CC3)CC[C@]3(C)[C@H](CC[C@@H]4[C@@]5(C)CC=C(C6=CC7C(C6)C7C(=O)O)C(C)(C)[C@@H]5CC[C@]43C)[C@@H]12 (mixture of isomers) [Example A18, 3-((1R,3aS,5aR,5bR,7aR,11aS,11bR,13aR,13bR)-3a-((2-(1,1-dioxidothiomorpholino)ethyl)amino)-5a,5b,8,8,11a-pentamethyl-1-(prop-1-en-2-yl)-2,3,3a,4,5,5a,5b,6,7,7a,8,11,11a,11b,12,13,13a,13b-octadecahydro-1H-cyclopenta[a]chrysen-9-yl)bicyclo[3.1.0]hex-2-ene-6-carboxylic acid] | 2.26 nM |

From patent US8906889B2, “C-3 cycloalkenyl triterpenoids with HIV maturation inhibitory activity” (priority 2012, dated 2014)
